Results on two molecules are retold here after article PMC8397297 (ACS Chemical Neuroscience, 2021).

Each structure is given as a SMILES string.

For one data set, the system named is paclitaxel-treated mice. In words: paclitaxel-induced peripheral neuropathy, heat nociceptive threshold (hot plate test). It is filed as in vivo, mouse. The settings on record: for effect on latency to pain reaction (heat), hot plate test: day of paclitaxel administration (paclitaxel-induced hypoalgesia); for effect on thermal nociceptive threshold, hot plate test: seven days after paclitaxel administration, i.p. Here is the method:
Before the in vivo tests, the test compounds were suspended in 1% Tween 80 (Baxter, Poland). The compounds were then administered intraperitoneally. […] The test compounds were administered only once daily on days 1 and 7 of oxaliplatin- or paclitaxel-induced neuropathy. In STZ-treated mice, test compounds were administered 21 days after STZ injection. Control mice used in oxaliplatin and paclitaxel NP models were injected with an appropriate amount of vehicle (0.9% saline). Oxaliplatin was purchased from Activate Scientific GmbH (Germany). Paclitaxel and STZ were purchased from Sigma-Aldrich (Poland).
Doses of both paclitaxel and STZ used for the induction of neuropathy were selected based on our previous research.[66],[67] To induce neuropathy, paclitaxel was used at a dose of 18 mg/kg. It was prepared by dissolving in ethanol (100% (v/v); Polskie Odczynniki Chemiczne, Gliwice, Poland) at 10% of the final desired volume and vortexed for 2 min. An equal volume of Cremophor EL (10% of the final volume) was then added, and the mixture was vortexed for the next 10 min. Prior to injection, ice-cold physiological saline (80% of the final volume) was added to make up a final volume and the solution was maintained on ice during dosing.[66] To induce type I diabetes, mice were intraperitoneally injected with STZ (a single injection of STZ, 200 mg/kg) dissolved in 0.1 N citrate buffer. Age-matched control mice received an equal volume of citrate buffer. Blood glucose level was measured 1 day before (referred to as “day 0”) and repeatedly 1, 2, and 3 weeks after STZ injection using a blood glucose monitoring system (Accu-Chek Active, Roche, France). Blood samples for measurement of glucose concentration were obtained from the tail vein of the mice. The animals were considered as diabetic when their blood glucose concentration exceeded 300 mg/dL,[68] and only these mice (diabetic mice) were used in subsequent pain tests.[67]
Thermal (heat) nociceptive threshold was assessed in the hot plate test as previously described.[67] First, baseline (predrug) latencies to pain reaction were established for each mouse. Then, the mice were treated intraperitoneally with either the test compound or vehicle. Sixty minutes later the animals were placed on the hot plate apparatus again (hot/cold plate, Bioseb, France). This apparatus has an electrically heated surface and is supplied with a temperature-controller that maintains the temperature at 55 °C. The time until the animal licked its hind paws or jumped was recorded by means of a stop-watch. In this assay a cutoff time was established (60 s) to avoid tissue damage, and the mice not responding within 60 s were removed from the apparatus and assigned a score of 60 s.

The nature of data set [1]: HepG2 hepatoma cell-based hepatotoxicity assay (MTS). The settings on record: human, HepG2 hepatoma cells; 25 μM, 72 h, control 1% DMSO in culture media; read-out: HepG2 cell viability compared to the control. The protocol: To investigate the safety of compounds 2RS,4RS-39c, 50a, and 56a, a HepG2 hepatoma cell-based hepatotoxicity assay was used. Compounds were tested at six concentrations (0.1–100 μM).
Hepatotoxicity and cytotoxicity were estimated according to previously described protocols[62] using the hepatoma HepG2 (ATCC HB-8065) and human embryonic kidney HEK-293 (ATCC CRL1573) cell lines, respectively. In brief, cells were seeded in 96-well plates at a density of 0.7 × 10^4 and cultured at 37 °C in an atmosphere containing 5% CO2. Next, the compounds were added and investigated in quadruplicate at concentrations ranging from 0.1 to 100 μM for 72 h. The antiproliferative drug DX was used as the reference. The CellTiter 96 AQueous nonradioactive cell proliferation assay (MTS) purchased from Promega (Madison, WI, USA) was used for the determination of cell viability. The absorbance at 492 nm was measured using an EnSpire microplate reader (PerkinElmer, Waltham, MA, USA).

On to `CN(CCON=C(c1ccccc1)c1ccccc1)C(CCN)C(=O)NCc1ccccc1Cl` (stereo not drawn) [Compound 50a, 4-Amino-N-[(2-chlorophenyl)methyl]-2-[(2-{[(diphenylmethylidene)amino]oxy}ethyl)(methyl)amino]butanamide], for which the “effect on latency to pain reaction (heat), hot plate test” value in the data set with paclitaxel-treated mice (30 mg/kg i.p.) is given as “reduced latency to pain reaction”. For the same molecule, the “effect on thermal nociceptive threshold, hot plate test” value in the data set with paclitaxel-treated mice is “did not reveal the effect of paclitaxel and compounds 50a and 56a on the thermal nociceptive threshold”.

The term viability denotes the share of living cells, or the viability signal relative to a control. Consider `CN(CCC=C1c2ccccc2CCc2ccccc21)C(CO)C(=O)NCc1ccccc1` (stereo not drawn) [Compound 56a, N-Benzyl-2-((3-(10,11-dihydro-5H-dibenzo[a,d][7]annulen-5-ylidene)propyl)(methyl)amino)-3-hydroxypropanamide], for which the viability at 72 h, 25 µM in data set [1] came out at 100%. Further, the “effect on latency to pain reaction (heat), hot plate test” value in the data set on paclitaxel-treated mice (10 mg/kg i.p.) and in the data set with paclitaxel-treated mice (30 mg/kg i.p.) was “reduced latency to pain reaction” in each case. In addition, in the data set with paclitaxel-treated mice, the “effect on thermal nociceptive threshold, hot plate test” value is “did not reveal the effect of paclitaxel and compounds 50a and 56a on the thermal nociceptive threshold”.
